# Measured values taken from patent US20260151327A1, “COSMETIC COMPOSITION FOR SKIN PROTECTION CONTAINING SCUTELLARIA BAICALENSIS EXTRACT AS ACTIVE INGREDIENT” (EVERBIO CO., LTD., priority 2022, published 2026).
# Experiments:
# Format in all cases: cell-based
# [1] = tested on: hormone sensitive lipase (HSL); assay: Lipolysis promoting effect in ASCs, FITC-anti-HSL staining, flow cytometry and HSL synthesis level; conditions: benzo[a]pyrene alone (BP50)
# Procedure: (§1) AMP-activated protein kinase (AMPK) and hormone sensitive lipase (HSL), most common lipolytic enzymes, were applied to adipose-derived stem cells (ASCs), and the lipids obtained by degradation through AMPK were stained with PE-anti-AMPK (R&D system, USA), and the lipids obtained by degradation through HSL were stained with FITC-anti-HSL (R&D system, USA) for 24 hours. The lipids were washed with PBS, and then analyzed using a flow cytometer (FACSCalibur) and FlowJo v10.6.1 (BD Bioscience, USA), and the results are shown in FIG. 3A.
# (§2) The synthesis levels of AMPK and HSL were analyzed and plotted in FIG. 3B.
# [2] = tested on: CCAAT enhancer binding protein alpha (CEBP-α); assay: mRNA expression level of CEBP-α in ASCs (RT-PCR); conditions: 50 μM/mL benzo[a]pyrene (BP50) vs control (Con)
# Procedure: The influence of benzo[a]pyrene and the Scutellaria baicalensis extract on the mRNA expression level of CCAAT enhancer binding protein alpha (CEBP-α), one of the lipolysis promoting genes, was investigated by the method as below.
# The adipose-derived stem cells were divided into i) a control group with no treatment (Con), ii) a group treated with 50 μM/mL benzo[a]pyrene (BP50), iii) a group treated with 50 μM/mL benzo[a]pyrene and 200 μL/mL Scutellaria baicalensis extract (SBE200+BP50), and iv) a group treated with 50 μM/mL benzo[a]pyrene and 400 μL/mL Scutellaria baicalensis extract (SBE400+BP50), and the total RNA of each cell group was extracted using […] (GeneAll, Seoul, Korea). RNA was used to synthesize cDNA under the conditions of 1 minute at 95° C. and 35 seconds at 72° C. by using Maxime RT PreMix (iNtRON, Seungnam, Korea). The synthesized cDNA was amplified using the primers shown in Table 1 under the conditions of 15 seconds at 95° C., 30 seconds at 59° C., and 1 minute at 72° C. The amount of cDNA amplification was analyzed using iBright (FL1000, Thermo Fisher Scientific, Waltham, MA, USA) and iBright Analysis software 3.1.3 (Thermo Fisher Scientific, Waltham, MA, MA, USA), and the results are shown in FIG. 5.
# [3] = tested on: adipose-derived stem cells (ASCs); assay: Cytotoxicity (CC50) in adipose-derived stem cells, 3 days exposure; conditions: benzo[a]pyrene, ASCs exposed for 3 days; read-out: CC50 (50% cytotoxicity concentration)
# Procedure: (§3) PCS-500-011™ cells (Thermo-Fisher Scientific, USA) were purchased as adipose-derived stem cells (ASCs) used in the experiment, from American Type Culture Collection (ATCC), and subcultured for 3 passages in the MesenPRO RS™ medium and MesenPRO RS™ growth supplement medium (Thermo-Fisher scientific, USA) until the live cells reached 80% to 90% confluency.
# (§4) Specifically, the cell stock vial was thawed in a 37° C. water bath and suspended in a medium with an equal volume of the cell stock vial, and then the suspension was transferred to a tube and centrifuged (2,000 rpm, 2 min, 4° C.), followed by removal of the supernatant. The phosphate buffered saline (PBS) was added to the cell pellets remaining after the removal of the supernatant, and then the above procedures were repeated three times. Thereafter, the resultant product was placed in a medium where the cell pellets were to be grown, followed by gentle pipetting up and down, thereby preparing a cell suspension. The cell suspension was dispensed into a flask or dish containing an appropriate amount of medium. The cells were subcultured when the cells reached 70% to 80% confluency on the bottom.
# (§5) PBS, media, and trypsin-EDTA were warmed at 37° C. for 30 minutes before use. The supernatant medium was removed by suction, and PBS was dispensed. […]
# [4] = as above; conditions: human, adipose-derived stem cells (ASCs, ATCC PCS-500-011), benzo[a]pyrene, ASCs exposed for 3 days; read-out: CC50 (50% cytotoxicity concentration)
# Procedure: as §3, §4, §5
# [5] = tested on: AMP-activated protein kinase (AMPK); assay: Lipolysis promoting effect in ASCs, PE-anti-AMPK staining, flow cytometry and AMPK synthesis level; conditions: benzo[a]pyrene alone (BP50)
# Procedure: as §1, §2
# [6] = tested on: adipose-derived stem cells (ASCs); assay: Annexin-V-PI staining and flow cytometry: protection of ASCs against benzo[a]pyrene toxicity; conditions: human, 50 μM/mL
# Procedure: The adipose-derived stem cell (ASC) protective effect of the Scutellaria baicalensis extract against the cell toxicity of benzo[a]pyrene was analyzed as below.
# The adipose-derived stem cells cultured by the method in Example 1-1 were divided into i) a group treated with 50 μM/mL benzo[a]pyrene (BP50), ii) a group treated with 50 μM/mL benzo[a]pyrene and 200 μL/mL Scutellaria baicalensis extract (SBE200+BP50), and iii) a group treated with 50 μM/mL benzo[a]pyrene and 400 μL/mL Scutellaria baicalensis extract (SBE400+BP50). To observe cell apoptosis, the cells were stained using Annexin-V-PI dye kit (Invitrogen, USA). Since Annexin-V binds to phosphatidylserine (PS), which was exposed on the outer cell membrane during early apoptosis, early apoptosis can be identified using Annexin-V. Meanwhile, propidium iodide (PI), which binds to the nucleus, stains the nucleus through holes formed in the cell membrane in a state of late apoptosis or necrosis, thereby allowing the identification of late apoptotic or dead cells. […] For result analysis, the cellular viability was measured using a flow cytometer (BD FACSCalibur) and FlowJo 10.6.1 (BD Bioscience), and the results are shown in FIG. 2.
smiles,measurement,setting,value
"c1ccc2c(c1)cc1ccc3cccc4ccc2c1c34 [benzo[a]pyrene, Benzo[a]pyrene]",proportion of cells undergoing lipolysis by HSL,[1],14.92%
same,"mRNA expression level of CEBP-α, fold higher than control group",[2],4.73 fold
same,CC50,[3],50 µM
same,CC50 at 3 days,[4],25 µM
same,proportion of cells undergoing lipolysis by AMPK,[5],18.72%
same,cellular viability,[6],48.1%
same,early apoptotic cell proportion,[6],29.6%
same,late apoptotic cell proportion,[6],51.8%
